Reference: US10966994B2, “Thromboxane receptor antagonists” (ATXA THERAPEUTICS LIMITED, priority 2015, dated 2021)

Columns and labels:
FP1 receptor = FP1 receptor (Homo sapiens, UniProt P43088); test: Specificity testing, FP1 receptor signaling; type: cell-based
EP2 receptor = EP2 receptor (Homo sapiens, UniProt P43116); test: Specificity testing, EP2 receptor signaling; type: cell-based
human platelets = test: U46619-mediated platelet aggregation ex vivo (PAP-8E aggregometer); type: cell-based; conditions: for IC50: Platelet, human PRP, 10 min pre-incubation, 1 μM U46619, estimated IC50, read-out: IC50 values for Inhibition of U46619-Mediated Platelet Aggregation
Procedure: In order to evaluate NTP42-NTP49 in a second independent assay, the effect of the compounds on U46619-mediated platelet aggregation assays was examined. Clearly, from an efficacy point of view, this is an important assay and, physiologically, the more relevant with respect to the therapeutic target.
The compounds were tested in side-by-side assays with the previously identified key lead compound TP20 using the PAP-8E platelet aggregometer.
(§1) PRP was prepared from blood taken from healthy volunteers into syringes containing 3.8% sodium citrate and 10 μM indomethacin such that the final ratio of anticoagulant to blood was 1:9. Aliquots of PRP (300 μl) were pre-incubated for 10 min with the TP antagonists, TP20, NTP42, NTP43, NTP44, NTP45, NTP47, NTP48 and NTP49, where 2-fold serial dilutions from 0.25 μM was prepared for each, prior to stimulating platelets with 1 μM U46619, incubated at 37° C., with stirring. The results are presented as Percentage Aggregation (mean±S.E.M.), as determined by changes in light transmission over time using the PAP-8E Platelet Aggregation Profiler and represents data from 4 independent experiments (n=4).
as §1, with “TP20, NTP4,” for “TP20,”, “NTP42, NTP43” for “NTP42, NTP43, NTP44, NTP45, NTP47, NTP48”, “and NTP48,” for “and NTP49,”, “from 1” for “from 0.25”, “from at least 3” for “from 4”, “experiments (n≥3).” for “experiments (n=4).”

[1] = target: T1, thrombin (PAR1) receptors (Homo sapiens, UniProt P25116); test: Specificity testing, thrombin (PAR1) receptor signaling
T1 sequence (P25116 22-425): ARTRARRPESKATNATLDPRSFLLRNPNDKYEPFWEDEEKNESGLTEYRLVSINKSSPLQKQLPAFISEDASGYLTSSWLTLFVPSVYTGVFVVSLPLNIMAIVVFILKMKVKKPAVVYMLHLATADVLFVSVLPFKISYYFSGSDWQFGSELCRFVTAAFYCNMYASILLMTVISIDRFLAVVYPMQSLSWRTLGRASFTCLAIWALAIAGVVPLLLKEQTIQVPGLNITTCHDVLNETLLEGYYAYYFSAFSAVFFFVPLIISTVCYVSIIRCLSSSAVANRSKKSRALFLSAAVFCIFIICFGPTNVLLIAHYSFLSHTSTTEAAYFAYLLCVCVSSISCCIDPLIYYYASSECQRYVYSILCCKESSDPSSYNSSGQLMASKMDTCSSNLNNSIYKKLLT

EP1 receptor = target: T2, EP1 receptor (Homo sapiens, UniProt P34995); test: Specificity testing, EP1 receptor signaling; type: cell-based
T2 sequence (P34995 1-402): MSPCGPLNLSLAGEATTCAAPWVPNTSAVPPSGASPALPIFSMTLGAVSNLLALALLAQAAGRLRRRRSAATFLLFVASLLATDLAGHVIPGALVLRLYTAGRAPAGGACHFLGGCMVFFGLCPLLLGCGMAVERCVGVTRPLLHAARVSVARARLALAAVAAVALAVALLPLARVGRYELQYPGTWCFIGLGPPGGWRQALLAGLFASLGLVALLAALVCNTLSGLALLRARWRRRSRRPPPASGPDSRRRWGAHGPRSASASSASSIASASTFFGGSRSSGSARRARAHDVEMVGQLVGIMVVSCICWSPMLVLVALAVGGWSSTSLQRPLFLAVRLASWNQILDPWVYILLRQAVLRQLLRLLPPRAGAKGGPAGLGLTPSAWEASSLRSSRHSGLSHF
Procedure: (§2) There is no or minimal inhibition of the majority of the non-TP-mediated signaling observed in the presence of either NTP42 & NTP48. Where there is inhibition of signaling, it is observed at the 10 μM concentration only. […] Compared to NTP42, NTP48 has less of an effect on the signaling of the non-TP prostanoid receptors and therefore, may be considered more favorable in this context.

IP receptor = IP receptor (Homo sapiens, UniProt P43119); test: Specificity testing, IP receptor signaling; type: cell-based
Procedure: as §2

EP3 receptor = target: T3, EP3 receptor (Homo sapiens, UniProt P43115); test: Specificity testing, EP3 receptor signaling; type: cell-based
T3 sequence (P43115 1-390): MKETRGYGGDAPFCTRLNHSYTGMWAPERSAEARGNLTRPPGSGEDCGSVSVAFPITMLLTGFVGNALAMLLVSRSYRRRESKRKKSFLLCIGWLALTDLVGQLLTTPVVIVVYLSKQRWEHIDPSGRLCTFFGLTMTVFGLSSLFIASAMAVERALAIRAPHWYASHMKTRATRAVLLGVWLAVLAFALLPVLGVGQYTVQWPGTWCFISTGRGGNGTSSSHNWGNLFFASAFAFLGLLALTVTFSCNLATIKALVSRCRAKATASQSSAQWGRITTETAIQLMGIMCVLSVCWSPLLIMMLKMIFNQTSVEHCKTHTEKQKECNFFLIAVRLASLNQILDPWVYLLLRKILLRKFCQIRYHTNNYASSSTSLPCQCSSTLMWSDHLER

DP1 receptor = target: T4, DP1 receptor (Homo sapiens, UniProt Q13258); test: Specificity testing, DP1 receptor signaling; type: cell-based
T4 sequence (Q13258 1-359): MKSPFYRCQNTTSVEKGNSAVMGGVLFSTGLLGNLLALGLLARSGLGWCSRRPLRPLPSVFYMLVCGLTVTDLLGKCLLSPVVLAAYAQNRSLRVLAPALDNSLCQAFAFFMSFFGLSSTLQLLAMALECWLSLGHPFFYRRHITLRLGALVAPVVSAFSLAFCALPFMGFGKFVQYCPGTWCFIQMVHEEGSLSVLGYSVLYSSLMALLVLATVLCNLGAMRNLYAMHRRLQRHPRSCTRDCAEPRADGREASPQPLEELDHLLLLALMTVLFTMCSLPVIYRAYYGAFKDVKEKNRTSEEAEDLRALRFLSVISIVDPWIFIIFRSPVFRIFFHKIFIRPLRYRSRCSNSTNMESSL
Procedure: as §2

[2] = system: purinergic (ADP) receptors; test: Specificity testing, purinergic (ADP) receptor signaling
[3] = maximal inhibition, at 10 μM only

Sequence of IP receptor (P43119 whole entry): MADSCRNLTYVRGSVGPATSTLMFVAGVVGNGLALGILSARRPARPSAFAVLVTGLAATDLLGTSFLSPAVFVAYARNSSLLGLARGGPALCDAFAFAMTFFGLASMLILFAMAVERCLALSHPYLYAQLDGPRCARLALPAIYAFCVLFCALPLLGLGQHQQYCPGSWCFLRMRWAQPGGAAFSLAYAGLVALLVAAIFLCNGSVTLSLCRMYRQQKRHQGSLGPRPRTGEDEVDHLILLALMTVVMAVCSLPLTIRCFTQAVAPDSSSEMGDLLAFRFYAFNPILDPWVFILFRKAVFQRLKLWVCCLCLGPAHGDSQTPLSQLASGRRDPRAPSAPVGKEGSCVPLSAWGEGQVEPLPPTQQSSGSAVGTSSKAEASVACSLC
Sequence of FP1 receptor (P43088 whole entry): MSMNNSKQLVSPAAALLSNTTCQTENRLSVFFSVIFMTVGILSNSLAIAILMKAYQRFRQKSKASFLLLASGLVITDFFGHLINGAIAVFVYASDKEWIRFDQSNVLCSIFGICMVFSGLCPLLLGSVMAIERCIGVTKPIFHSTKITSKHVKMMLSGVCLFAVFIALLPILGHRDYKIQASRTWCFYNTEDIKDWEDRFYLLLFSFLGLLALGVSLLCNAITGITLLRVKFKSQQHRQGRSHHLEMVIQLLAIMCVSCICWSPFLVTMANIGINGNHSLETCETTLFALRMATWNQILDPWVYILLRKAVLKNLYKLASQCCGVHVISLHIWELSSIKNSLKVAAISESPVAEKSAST
Sequence of EP2 receptor (P43116 whole entry): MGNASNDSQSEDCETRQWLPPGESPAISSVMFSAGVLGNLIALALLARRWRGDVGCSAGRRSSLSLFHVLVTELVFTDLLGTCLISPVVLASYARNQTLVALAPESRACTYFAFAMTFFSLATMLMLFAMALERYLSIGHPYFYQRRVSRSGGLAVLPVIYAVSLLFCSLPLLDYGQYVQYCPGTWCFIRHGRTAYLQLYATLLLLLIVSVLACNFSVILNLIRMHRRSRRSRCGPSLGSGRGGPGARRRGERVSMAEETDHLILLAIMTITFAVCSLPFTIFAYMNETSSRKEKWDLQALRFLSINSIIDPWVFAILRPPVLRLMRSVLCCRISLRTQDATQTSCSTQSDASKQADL

SMILES | effect on the FP1 receptor (FP-mediated signaling) (FP1 receptor) | effect on the EP2 receptor (EP2 receptor) | IC50 (human platelets) | effect on signaling through thrombin (PAR1) receptors [1] | effect on the EP1 receptor (EP1 receptor) | effect on the IP receptor (IP receptor) | effect on the EP3 receptor (EP3 receptor) | effect on the DP1 receptor (DP-mediated signaling) (DP1 receptor) | effect on signaling through purinergic (ADP) receptors [2] | percentage reduction in responses, EP1 (EP1 receptor; [3]) | percentage reduction in responses, IP (IP receptor; [3]) | percentage reduction in responses, DP1 (DP1 receptor; [3]) | inhibition of U46619-mediated aggregation of human platelet ex vivo (in words) (human platelets; 1 μM U46619)
CC(C)(C)NC(=O)NS(=O)(=O)c1cc(C#N)ccc1Oc1cccc(-c2ccc(OC(F)(F)F)cc2)c1 [NTP43] | not to exhibit any effect | not to exhibit any effect | 22 ± 2.03 nM | neither NTP42, NTP43 nor NTP48 exhibited any effect | not to exhibit any effect | not to exhibit any effect | not to exhibit any effect | not to exhibit any effect | neither NTP42, NTP43 nor NTP48 exhibited any effect |  |  |  | 
COc1ccc(-c2cccc(Oc3ccc(C#N)cc3S(=O)(=O)NC(=O)NC(C)(C)C)c2)cc1 [NTP4, reference compound] | like TP20 and NTP4, neither NTP42, NTP43 nor NTP48 exhibited any effect | like TP20 and NTP4, neither NTP42, NTP43 nor NTP48 exhibited any effect | 21.3 ± 1.01 nM | like TP20 and NTP4, neither NTP42, NTP43 nor NTP48 exhibited any effect | like TP20 and NTP4, neither NTP42, NTP43 nor NTP48 exhibited any effect | like TP20 and NTP4, neither NTP42, NTP43 nor NTP48 exhibited any effect | like TP20 and NTP4, neither NTP42, NTP43 nor NTP48 exhibited any effect | like TP20 and NTP4, neither NTP42, NTP43 nor NTP48 exhibited any effect | like TP20 and NTP4, neither NTP42, NTP43 nor NTP48 exhibited any effect |  |  |  | 
CC(C)(C)NC(=O)NS(=O)(=O)c1cc(C#N)ccc1Oc1cccc(-c2ccc(OC(F)F)cc2)c1 [NTP42] | no effect | no effect | 10.1 ± 1.07 nM | neither NTP42, NTP43 nor NTP48 exhibited any effect | no effect | no effect | no effect | no effect | neither NTP42, NTP43 nor NTP48 exhibited any effect | ~55% | 50% | < 30% | 
CN(C)C(=O)c1ccc(-c2cccc(Oc3ccc(C#N)cc3S(=O)(=O)NC(=O)NC(C)(C)C)c2)cc1 [NTP48, 4-[3-[2-(tert-Butylcarbamoylsulfamoyl)-4-cyano-phenoxy]phenyl]-N,N-dimethyl-benzamide] | no effect | no effect | 9.45 ± 1.38 nM | neither NTP42, NTP43 nor NTP48 exhibited any effect | no effect | no effect | no effect | no effect | neither NTP42, NTP43 nor NTP48 exhibited any effect |  |  |  | 
COc1ccc(-c2cccc(Oc3ccc([N+](=O)[O-])cc3S(=O)(=O)NC(=O)NC(C)(C)C)c2)cc1 [TP20, reference compound] | like TP20 and NTP4, neither NTP42, NTP43 nor NTP48 exhibited any effect | like TP20 and NTP4, neither NTP42, NTP43 nor NTP48 exhibited any effect | 4.62 ± 0.72 nM | like TP20 and NTP4, neither NTP42, NTP43 nor NTP48 exhibited any effect | like TP20 and NTP4, neither NTP42, NTP43 nor NTP48 exhibited any effect | like TP20 and NTP4, neither NTP42, NTP43 nor NTP48 exhibited any effect | like TP20 and NTP4, neither NTP42, NTP43 nor NTP48 exhibited any effect | like TP20 and NTP4, neither NTP42, NTP43 nor NTP48 exhibited any effect | like TP20 and NTP4, neither NTP42, NTP43 nor NTP48 exhibited any effect |  |  |  | potently inhibit
